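These data come from cells grown in 96-well plates and exposed to compound for 48 hours at five concentrations. TGI marks complete inhibition of growth.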
What was measured:
Assay in all cases: NCI anticancer screen, dose series, 48 h
T-47D breast = tested on: T-47D breast
SR leukemia = tested on: SR leukemia
CAKI-1 renal = tested on: CAKI-1 renal
PC-3 prostate = tested on: PC-3 prostate
A498 renal = tested on: A498 renal
RXF 393 renal = tested on: RXF 393 renal
OVCAR-3 ovarian = tested on: OVCAR-3 ovarian
IGROV1 ovarian = tested on: IGROV1 ovarian
SF-268 CNS = tested on: SF-268 CNS
U251 CNS = tested on: U251 CNS
OVCAR-5 ovarian = tested on: OVCAR-5 ovarian
SK-MEL-2 melanoma = tested on: SK-MEL-2 melanoma
UACC-257 melanoma = tested on: UACC-257 melanoma
CCRF-CEM leukemia = tested on: CCRF-CEM leukemia
RPMI-8226 leukemia = tested on: RPMI-8226 leukemia
UACC-62 melanoma = tested on: UACC-62 melanoma
OVCAR-4 ovarian = tested on: OVCAR-4 ovarian
ACHN renal = tested on: ACHN renal
HCC-2998 colon = tested on: HCC-2998 colon
A549 NSCLC = tested on: A549 NSCLC
786-0 renal = tested on: 786-0 renal
SF-295 CNS = tested on: SF-295 CNS
MDA-N = tested on: MDA-N
NCI-H23 lung = tested on: NCI-H23 lung
NCI-H460 lung = tested on: NCI-H460 lung
SK-OV-3 ovarian = tested on: SK-OV-3 ovarian
OVCAR-8 ovarian = tested on: OVCAR-8 ovarian
SNB-19 CNS = tested on: SNB-19 CNS
MDA-MB-231 breast = tested on: MDA-MB-231 breast
DU-145 prostate = tested on: DU-145 prostate
SNB-75 CNS = tested on: SNB-75 CNS
HOP-92 NSCLC = tested on: HOP-92 NSCLC
HL-60(TB) leukemia = tested on: HL-60(TB) leukemia
SF-539 CNS = tested on: SF-539 CNS
KM12 colon = tested on: KM12 colon
MDA-MB-435 = tested on: MDA-MB-435
MOLT-4 leukemia = tested on: MOLT-4 leukemia
SW-620 colon = tested on: SW-620 colon
HCT-15 colon = tested on: HCT-15 colon
HS 578T breast = tested on: HS 578T breast
LOX IMVI melanoma = tested on: LOX IMVI melanoma
EKVX NSCLC = tested on: EKVX NSCLC
NCI-H226 lung = tested on: NCI-H226 lung
NCI-H522 lung = tested on: NCI-H522 lung
HCT-116 colon = tested on: HCT-116 colon
HT29 colon = tested on: HT29 colon
SK-MEL-28 melanoma = tested on: SK-MEL-28 melanoma
MALME-3M melanoma = tested on: MALME-3M melanoma
M14 melanoma = tested on: M14 melanoma
HOP-62 NSCLC = tested on: HOP-62 NSCLC
NCI/ADR-RES ovarian = tested on: NCI/ADR-RES ovarian
COLO 205 colon = tested on: COLO 205 colon
SK-MEL-5 melanoma = tested on: SK-MEL-5 melanoma
SN12C renal = tested on: SN12C renal
BT-549 breast = tested on: BT-549 breast
TK-10 renal = tested on: TK-10 renal
UO-31 renal = tested on: UO-31 renal
K-562 leukemia = tested on: K-562 leukemia
MCF7 breast = tested on: MCF7 breast

Measured: TGI

O=c1[nH]c2cc3[nH]c4ncccc4c(=O)c3cc2[nH]1
> 10 µM: T-47D breast | SR leukemia | CAKI-1 renal | PC-3 prostate | A498 renal | RXF 393 renal | OVCAR-3 ovarian | IGROV1 ovarian | SF-268 CNS | U251 CNS | OVCAR-5 ovarian | SK-MEL-2 melanoma | UACC-257 melanoma | CCRF-CEM leukemia | RPMI-8226 leukemia | UACC-62 melanoma | OVCAR-4 ovarian | ACHN renal | HCC-2998 colon | A549 NSCLC | 786-0 renal | SF-295 CNS | MDA-N | NCI-H23 lung | NCI-H460 lung | SK-OV-3 ovarian | OVCAR-8 ovarian | SNB-19 CNS | MDA-MB-231 breast | DU-145 prostate | SNB-75 CNS | HOP-92 NSCLC | HL-60(TB) leukemia | SF-539 CNS | KM12 colon | MDA-MB-435 | MOLT-4 leukemia | SW-620 colon | HCT-15 colon | HS 578T breast | LOX IMVI melanoma | EKVX NSCLC | NCI-H226 lung | NCI-H522 lung | HCT-116 colon | HT29 colon | SK-MEL-28 melanoma | MALME-3M melanoma | M14 melanoma | HOP-62 NSCLC | NCI/ADR-RES ovarian | COLO 205 colon | SK-MEL-5 melanoma | SN12C renal | BT-549 breast | TK-10 renal

COC1CC(OC(=O)c2ccccc2)C(OC(=O)c2ccccc2)C(C)O1 (stereo not given)
> 100 µM: T-47D breast | SR leukemia | CAKI-1 renal | PC-3 prostate | A498 renal | RXF 393 renal | OVCAR-3 ovarian | IGROV1 ovarian | SF-268 CNS | U251 CNS | OVCAR-5 ovarian | SK-MEL-2 melanoma | UACC-257 melanoma | CCRF-CEM leukemia | RPMI-8226 leukemia | UO-31 renal | UACC-62 melanoma | ACHN renal | K-562 leukemia | HCC-2998 colon | A549 NSCLC | 786-0 renal | SF-295 CNS | MDA-N | NCI-H23 lung | NCI-H460 lung | SK-OV-3 ovarian | OVCAR-8 ovarian | SNB-19 CNS | MDA-MB-231 breast | DU-145 prostate | HOP-92 NSCLC | HL-60(TB) leukemia | SF-539 CNS | MCF7 breast | KM12 colon | MDA-MB-435 | MOLT-4 leukemia | SW-620 colon | HCT-15 colon | HS 578T breast | LOX IMVI melanoma | EKVX NSCLC | NCI-H226 lung | NCI-H522 lung | HCT-116 colon | SK-MEL-28 melanoma | MALME-3M melanoma | M14 melanoma | HOP-62 NSCLC | NCI/ADR-RES ovarian | COLO 205 colon | SK-MEL-5 melanoma | SN12C renal | TK-10 renal

COc1cc(/C=N/Nc2nnc3c4ccccc4c4ncccc4c3n2)cc(OC)c1OC
5.68 µM: NCI-H460 lung
5.4 µM: HT29 colon
> 10 µM: SR leukemia | RXF 393 renal | OVCAR-3 ovarian | IGROV1 ovarian | SF-268 CNS | U251 CNS | OVCAR-5 ovarian | CCRF-CEM leukemia | UO-31 renal | OVCAR-4 ovarian | ACHN renal | K-562 leukemia | A549 NSCLC | 786-0 renal | SF-295 CNS | SNB-19 CNS | DU-145 prostate | SNB-75 CNS | HL-60(TB) leukemia | SF-539 CNS | KM12 colon | MDA-MB-435 | MOLT-4 leukemia | HS 578T breast | EKVX NSCLC | M14 melanoma | SK-MEL-5 melanoma | BT-549 breast | TK-10 renal
9.12 µM: NCI-H226 lung
5.75 µM: NCI-H522 lung
8.25 µM: NCI-H23 lung
8.09 µM: MDA-N
6.58 µM: OVCAR-8 ovarian
4.11 µM: T-47D breast
8.23 µM: UACC-257 melanoma

Cn1nc(S(N)(=O)=O)s/c1=N/C(N)=S
> 100 µM: T-47D breast | SR leukemia | CAKI-1 renal | A498 renal | RXF 393 renal | OVCAR-3 ovarian | SF-268 CNS | U251 CNS | OVCAR-5 ovarian | SK-MEL-2 melanoma | UACC-257 melanoma | CCRF-CEM leukemia | RPMI-8226 leukemia | UO-31 renal | UACC-62 melanoma | OVCAR-4 ovarian | ACHN renal | K-562 leukemia | HCC-2998 colon | A549 NSCLC | 786-0 renal | SF-295 CNS | MDA-N | NCI-H23 lung | NCI-H460 lung | SK-OV-3 ovarian | OVCAR-8 ovarian | SNB-19 CNS | MDA-MB-231 breast | DU-145 prostate | HOP-92 NSCLC | HL-60(TB) leukemia | SF-539 CNS | MCF7 breast | KM12 colon | MDA-MB-435 | MOLT-4 leukemia | SW-620 colon | HCT-15 colon | HS 578T breast | LOX IMVI melanoma | EKVX NSCLC | NCI-H226 lung | NCI-H522 lung | HCT-116 colon | HT29 colon | SK-MEL-28 melanoma | MALME-3M melanoma | M14 melanoma | HOP-62 NSCLC | NCI/ADR-RES ovarian | COLO 205 colon | SK-MEL-5 melanoma | SN12C renal | BT-549 breast | TK-10 renal

Source: PubChem BioAssay (NCI)
